Earlier results as cited in patent publication US6623768B1, “Pharmaceutically active composition extracted from Ferula hermonis and process of its extraction” (priority 2002, dated 2003).

Test system: adult female rats

**Q.** For `COc1cc(C(=O)O[C@H]2CC(C)=CC[C@@]3(C)CC[C@@](O)(C(C)C)[C@H]23)ccc1O` [jaeschkeanadiol vanillate], which prevention of pregnancy (administered orally on 1 to 7 post coitum, adult female rats) is on record?
**A.** The prevention of pregnancy was “prevent pregnancy”.

**Q.** And the “prevention of pregnancy after single dose” value (single oral administration of 5 mg per kg on the first day of post coitum, rats)?
**A.** The value was “prevented pregnancy”.
